Experiments:
[1] = test system: AGS (Gastric Carcinoma); experiment: Bliss excess, mean over the matrix (fraction); higher = more synergy
Outline: (§1)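 After 24 hours at 37°C and 5% CO2 in 1536-well plates, cells in DMEM/F12 or RPMI plus 10% FBS received two-drug dose matrices for 72 hours. Viability came from CellTiter-Glo 2.0 luminescence and was scaled as inhibition, anchored at 0 by vehicle wells and at 1 by blank wells. Combination Emax is taken as the second-highest inhibition in the matrix, and Bliss excess as the observed combination effect less EA + EB − EA·EB, with EA and EB the single-agent effects.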

[2] = test system: Calu-3 (Lung Adenocarcinoma); experiment: as above
Outline: as §1

[3] = test system: HCC-78 (Lung Adenocarcinoma); experiment: as above
Outline: as §1

[4] = test system: LB831-BLC (Bladder Carcinoma); experiment: as above
Outline: as §1

[5] = test system: LNCaP-Clone-FGC (Prostate Carcinoma); experiment: as above
Outline: as §1

[6] = test system: SNU-5 (Gastric Carcinoma); experiment: as above
Outline: as §1

[7] = test system: 42-MG-BA (Glioblastoma); experiment: combination Emax (second highest fraction inhibited in the dose matrix, 72 h); higher = more inhibition; extreme values may be limits of the assay
Outline: as §1

[8] = test system: CAL-148 (Breast Carcinoma); experiment: as above
Outline: as §1

[9] = test system: EC-GI-10 (Esophageal Squamous Cell Carcinoma); experiment: as above
Outline: as §1

[10] = test system: HCC-78 (Lung Adenocarcinoma); experiment: as above
Outline: as §1

[11] = test system: HCC1806 (Breast Carcinoma); experiment: as above
Outline: as §1

[12] = test system: KP-1N (Pancreatic Carcinoma); experiment: as above
Outline: as §1

[13] = test system: KURAMOCHI (Ovarian Carcinoma); experiment: as above
Outline: as §1

[14] = test system: LB831-BLC (Bladder Carcinoma); experiment: as above
Outline: as §1

[15] = test system: NB10 (Neuroblastoma); experiment: as above
Outline: as §1

[16] = test system: NOS-1 (Osteosarcoma); experiment: as above
Outline: as §1

[17] = test system: RO82-W-1 (Thyroid Gland Carcinoma); experiment: as above
Outline: as §1

[18] = test system: Ramos-2G6-4C10 (Burkitt's Lymphoma); experiment: as above
Outline: as §1

[19] = test system: SNU-5 (Gastric Carcinoma); experiment: as above
Outline: as §1

[20] = test system: UM-UC-3 (Bladder Carcinoma); experiment: as above
Outline: as §1
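Wherever Bliss excess, mean over the matrix is given: after 72 h of two-drug dosing.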

Row | Compound | Bliss excess [1] | Bliss excess [2] | Bliss excess [3] | Bliss excess [4] | Bliss excess [5] | Bliss excess [6] | combination Emax [7] | combination Emax [8] | combination Emax [9] | combination Emax [10] | combination Emax [11] | combination Emax [12] | combination Emax [13] | combination Emax [14] | combination Emax [15] | combination Emax [16] | combination Emax [17] | combination Emax [18] | combination Emax [19] | combination Emax [20]
1 | NC1(C(=O)N[C@@H](CCO)c2ccc(Cl)cc2)CCN(c2ncnc3[nH]ccc23)CC1 [Capivasertib] + CC(=O)c1c(C)c2cnc(Nc3ccc(N4CCNCC4)cn3)nc2n(C2CCCC2)c1=O [Palbociclib] (first compound max 10 µM, 7x7, partner max 10 µM) | 0.0794 | 0.0775 | -0.0134 | -0.0586 | 0.0242 | -0.0253 | 0.639 | 0.964 | 0.665 | 0.344 | 0.516 | 0.451 | 0.29 | 0.453 | 0.369 | 0.607 | 0.218 | 0.42 | 0.379 | 0.491
2 | CN(CCO)CC[C@H](CSc1ccccc1)Nc1ccc(S(=O)(=O)NC(=O)c2ccc(N3CCC([C@@H](O)c4ccccc4-c4ccc(Cl)cc4)CC3)cc2)cc1S(=O)(=O)C(F)(F)F [AZD4320] + CN(C)CCCOc1ccc(-c2ccc3ncc4c(c3c2)n(C2CCOCC2)c(=O)n4C)cn1 [AZD0156] (first compound max 1 µM, 7x7, partner max 1 µM) | -0.0561 | -0.0153 | -0.033 | -0.0403 | -0.089 | 0.0286 | 0.274 | 0.504 | 0.193 | 0.147 | 0.133 | 0.194 | 0.189 | 0.286 | 0.215 | 0.611 | 0.469 | 0.345 | 0.245 | 0.201
3 | C=CCn1c(=O)c2cnc(Nc3ccc(N4CCN(C)CC4)cc3)nc2n1-c1cccc(C(C)(C)O)n1 [AZD1775] + O=C(c1cc(Cc2n[nH]c(=O)c3ccccc23)ccc1F)N1CCN(C(=O)C2CC2)CC1 [Olaparib] (first compound max 1 µM, partner max 10 µM) | 0.0116 | -0.0243 | -0.029 | -0.01 | -0.0242 | -0.0833 | 0.278 | 0.978 | 0.831 | 0.377 | 0.836 | 0.359 | 0.699 | 0.607 | 0.682 | 0.376 | 0.405 | 1 | 0.433 | 0.326
4 | CCc1c2c(nc3ccc(O)cc13)-c1cc3c(c(=O)n1C2)COC(=O)[C@]3(O)CC [SN-38] + CN(C)CCCOc1ccc(-c2ccc3ncc4c(c3c2)n(C2CCOCC2)c(=O)n4C)cn1 [AZD0156] (first compound max 0.3 µM, 7x7, partner max 1 µM) | -0.0061 | 0.0092 | -0.0066 | 0.0223 | -0.0804 | -0.0237 | 1 | 0.912 | 0.776 | 0.924 | 0.91 | 0.627 | 0.659 | 0.723 | 0.829 | 0.0879 | 0.46 | 0.98 | 0.945 | 0.978
5 | NC1(C(=O)N[C@@H](CCO)c2ccc(Cl)cc2)CCN(c2ncnc3[nH]ccc23)CC1 [Capivasertib] + CC(C)n1c(=O)n(C)c2cnc3cc(F)c(-c4ccc(OCCCN5CCCCC5)nc4)cc3c21 [AZD1390] (first compound max 10 µM, 7x7, partner max 0.3 µM) | -0.108 | -0.0016 | -0.0434 | -0.0383 | -0.0681 | -0.0708 | 0.686 | 0.971 | 0.574 | 0.259 | 0.267 | 0.254 | 0.294 | 0.493 | 0.221 | 0.322 | 0.244 | 0.447 | 0.43 | 0.311
6 | CN(CCO)CC[C@H](CSc1ccccc1)Nc1ccc(S(=O)(=O)NC(=O)c2ccc(N3CCC([C@@H](O)c4ccccc4-c4ccc(Cl)cc4)CC3)cc2)cc1S(=O)(=O)C(F)(F)F [AZD4320] + Cn1cnc2c(F)c(Nc3ccc(Br)cc3Cl)c(C(=O)NOCCO)cc21 [Selumetinib] (first compound max 1 µM, 7x7, partner max 3 µM) | 0.181 | -0.0028 | 0.0491 | -0.0298 | 0.0009 | 0.118 | 0.694 | 0.996 | 0.51 | 0.305 | 0.795 | 0.196 | 0.584 | 0.373 | 0.887 | 0.69 | 0.538 | 0.472 | 0.759 | 0.332
7 | Cc1c2c(nn1C)CSCc1cc(n(C)n1)CSc1cc(c3ccccc3c1)OCCCc1c(C(=O)O)n(C)c3c-2c(Cl)ccc13 [AZD5991] + C=CCn1c(=O)c2cnc(Nc3ccc(N4CCN(C)CC4)cc3)nc2n1-c1cccc(C(C)(C)O)n1 [AZD1775] (first compound max 1 µM, partner max 1 µM) | -0.0145 | 0.0194 | -0.0329 | -0.0044 | 0.0118 | -0.0291 | 0.986 | 1 | 0.946 | 0.331 | 0.972 | 0.458 | 0.796 | 0.519 | 0.6 | 0.982 | 0.506 | 1 | 0.565 | 0.271
8 | COc1cccc(OCCCN)c1-c1cc(Nc2cnc(C#N)cn2)n[nH]1 [Prexasertib] + CCc1c2c(nc3ccc(O)cc13)-c1cc3c(c(=O)n1C2)COC(=O)[C@]3(O)CC [SN-38] (first compound max 1 µM, 7x7, partner max 0.3 µM) | -0.0467 | -0.0003 | -0.0337 | 0.0581 | -0.0782 | -0.0085 | 1 | 0.935 | 1 | 0.947 | 0.996 | 0.64 | 0.897 | 0.921 | 0.865 | 0.524 | 0.511 | 1 | 1 | 0.987
9 | CC1(C)CCC(CN2CCN(c3ccc(C(=O)NS(=O)(=O)c4ccc(NCC5CCOCC5)c([N+](=O)[O-])c4)c(Oc4cnc5[nH]ccc5c4)c3)CC2)=C(c2ccc(Cl)cc2)C1 [Venetoclax] + CN(C)CCCOc1ccc(-c2ccc3ncc4c(c3c2)n(C2CCOCC2)c(=O)n4C)cn1 [AZD0156] (first compound max 1 µM, 7x7, partner max 1 µM) | -0.0191 | -0.0113 | 0.0213 | -0.061 | -0.0503 | 0.0053 | 0.367 | 0.716 | 0.221 | 0.181 | 0.139 | 0.138 | 0.567 | 0.228 | 0.538 | 0.194 | 0.126 | 0.627 | 0.222 | 0.252
10 | COc1nnc2ccc(N3CCC(c4ccc(OCCN5CCN(C)C(=O)[C@H]5C)cc4)CC3)nn12 [AZD5153] + C=CCn1c(=O)c2cnc(Nc3ccc(N4CCN(C)CC4)cc3)nc2n1-c1cccc(C(C)(C)O)n1 [AZD1775] (first compound max 1 µM, partner max 1 µM) | -0.0294 | -0.0678 | -0.055 | -0.0157 | -0.0733 | -0.0759 | 0.688 | 0.907 | 0.865 | 0.421 | 0.9 | 0.655 | 0.83 | 0.668 | 0.749 | 0.867 | 0.451 | 1 | 0.522 | 0.393
11 | CC1(C)CCC(CN2CCN(c3ccc(C(=O)NS(=O)(=O)c4ccc(NCC5CCOCC5)c([N+](=O)[O-])c4)c(Oc4cnc5[nH]ccc5c4)c3)CC2)=C(c2ccc(Cl)cc2)C1 [Venetoclax] + COc1cc(Nc2ncc3c(n2)-c2ccc(Cl)cc2C(c2c(F)cccc2OC)=NC3)ccc1C(=O)O [Alisertib] (first compound max 1 µM, 7x7, partner max 10 µM) | 0.0353 | -0.0228 | 0.0127 | -0.0354 | 0.0008 | -0.0218 | 0.59 | 0.74 | 0.554 | 0.475 | 0.278 | 0.357 | 0.474 | 0.456 | 0.995 | 0.575 | 0.422 | 0.474 | 0.158 | 0.399
12 | CCN(CCO)CCCOc1ccc2c(Nc3cc(CC(=O)Nc4cccc(F)c4)[nH]n3)ncnc2c1 [AZD2811] + O=C(c1cc(Cc2n[nH]c(=O)c3ccccc23)ccc1F)N1CCN(C(=O)C2CC2)CC1 [Olaparib] (first compound max 1 µM, 7x7, partner max 10 µM) | 0.0484 | 0.0047 | 0.0013 | 0.0083 | -0.0009 | -0.0237 | 0.464 | 0.966 | 0.551 | 0.206 | 0.265 | 0.0679 | 0.237 | 0.268 | 0.386 | 0.22 | 0.195 | 0.295 | 0.108 | 0.305

From the supplement of paper PMC11061612
